Measured values taken from PMC9354084 (ACS Chemical Neuroscience, 2022).
Like-named read-outs stand apart in the source and are kept apart here.

What was measured:
[1] = target: T1, CK-1δ (Homo sapiens, UniProt P48730); details: cited from earlier work
T1 construct: amino acids 1–294; GST (N); purchased Merck Millipore
T1 sequence (P48730 1-294): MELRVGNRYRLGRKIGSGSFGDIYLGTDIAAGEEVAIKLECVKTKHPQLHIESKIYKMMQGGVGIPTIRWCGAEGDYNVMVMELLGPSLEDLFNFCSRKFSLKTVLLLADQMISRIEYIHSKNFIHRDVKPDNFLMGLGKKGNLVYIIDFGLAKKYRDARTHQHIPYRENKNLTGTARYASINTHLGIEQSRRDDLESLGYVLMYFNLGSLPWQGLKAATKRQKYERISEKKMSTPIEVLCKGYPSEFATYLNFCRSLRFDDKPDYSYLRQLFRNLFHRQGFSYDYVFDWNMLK

[2] = target: T2, hMAO-A (Homo sapiens, UniProt P21397); test: hMAO-A inhibitory activity (kynuramine, spectrophotometric); type: biochemical; details: for inhibition at 10 µM: read-out: hMAO-A inhibition at the highest concentration tested
T2 sequence (P21397 1-527): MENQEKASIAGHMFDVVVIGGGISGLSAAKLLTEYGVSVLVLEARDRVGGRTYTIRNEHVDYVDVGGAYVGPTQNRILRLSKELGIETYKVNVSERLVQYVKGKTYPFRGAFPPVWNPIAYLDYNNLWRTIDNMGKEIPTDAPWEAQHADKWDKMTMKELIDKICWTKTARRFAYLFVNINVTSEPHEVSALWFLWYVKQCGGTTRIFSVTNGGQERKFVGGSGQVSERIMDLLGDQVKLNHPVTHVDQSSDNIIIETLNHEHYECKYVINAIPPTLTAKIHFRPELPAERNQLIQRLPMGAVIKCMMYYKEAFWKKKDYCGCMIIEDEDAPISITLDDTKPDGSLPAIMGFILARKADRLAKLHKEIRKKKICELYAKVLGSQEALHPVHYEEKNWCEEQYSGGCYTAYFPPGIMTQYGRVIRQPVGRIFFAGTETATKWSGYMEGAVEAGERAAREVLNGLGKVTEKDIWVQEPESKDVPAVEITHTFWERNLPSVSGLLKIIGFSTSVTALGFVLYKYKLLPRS

[3] = target: T3, hMAO-B (Homo sapiens, UniProt P27338); test: hMAO-B inhibitory activity (kynuramine, spectrophotometric); type: biochemical; details: for inhibition at 10 µM: read-out: hMAO-B inhibition at the highest concentration tested; for SI: hMAO-B selectivity index = IC50 (hMAO-A)/IC50 (hMAO-B): bounds assume IC50 = 10 µM for inactive isoform
T3 sequence (P27338 1-520): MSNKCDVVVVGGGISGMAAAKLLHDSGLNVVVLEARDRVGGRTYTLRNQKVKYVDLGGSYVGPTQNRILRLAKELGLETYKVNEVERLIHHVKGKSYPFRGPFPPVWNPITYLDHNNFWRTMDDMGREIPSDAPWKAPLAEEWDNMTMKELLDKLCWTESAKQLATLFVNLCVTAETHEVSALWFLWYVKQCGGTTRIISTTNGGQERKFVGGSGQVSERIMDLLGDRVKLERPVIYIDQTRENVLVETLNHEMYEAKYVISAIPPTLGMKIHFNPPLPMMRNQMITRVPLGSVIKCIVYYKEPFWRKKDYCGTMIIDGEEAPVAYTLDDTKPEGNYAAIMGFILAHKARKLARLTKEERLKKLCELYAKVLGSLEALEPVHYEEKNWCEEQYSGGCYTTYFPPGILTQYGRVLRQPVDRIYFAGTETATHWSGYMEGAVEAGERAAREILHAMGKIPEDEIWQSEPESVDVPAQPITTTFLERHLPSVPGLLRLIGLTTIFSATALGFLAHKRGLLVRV

[4] = tested on: LH5 lymphoblasts; test: Antioxidant activity after menadione in healthy lymphoblasts; type: cell-based, human; details: LH5, 10 μM menadione 3 h, 10 µM compound pretreatment 21 h
[5] = tested on: iNOS expression in N9 microglial cells; test: Immunomodulation in LPS-insulted N9 microglia, iNOS Western blot; type: cell-based; details: LPS-insulted N9, 10 μM
[6] = tested on: Bcl-2 expression in N9 microglial cells; test: Antiapoptotic effects in LPS-insulted N9 microglia, Bcl-2 Western blot; type: cell-based
[7] = target: T1, CK-1δ; test: CK-1δ activity assay (KinaseGlo luminescence); type: biochemical; details: read-out: residual CK-1δ activity (%)
Protocol: CK-1δ activity assay. Compounds were evaluated towards CK-1δ (Merck Millipore, recombinant human, amino acids 1–294, with N-terminal GST-tagged) with the KinaseGloR luminescence assay (Promega) […]
following procedures reported in literature.10 In detail, luminescent assays were performed in black 96-well plates, using a buffer composed of: 50 mM HEPES (pH 7.5), 1 mM EDTA, 1 mM EGTA, and 15 mM […]
solution was used as a negative control. In a typical assay, 10 μL of inhibitor solution (obtained using a 10 mM DMSO solution diluted in assay buffer to 160 μM that corresponds to a final concentration of 40 μM in the assay) and 10 μL (16 ng of CK1δ) of enzyme solution were added to the well, followed by 20 μL of assay buffer containing 0.1% casein substrate and 4 μM ATP. The final DMSO concentration in the reaction […]
After 60 min of incubation at 30 °C for CK1δ the enzymatic reactions were stopped with 40 μL of Kinase-Glo reagent (Promega). Luminescence signal (relative light unit,RLU) was recorded after 10 min at 25 °C using Tecan Infinite M100. The activity is proportional to the difference of the total and consumed ATP. The residual activities of the enzyme were calculated on the basis of maximal activities measured in the absence of inhibitor. Data were analyzed using Excel and percentages of enzyme residual activity are reported as means ± standard deviation of two independent experiments performed in […]

[8] = PAMPA-BBB permeability assay; details: for Papp: PAMPA, PAMPA-BBB; for CNS prediction: predicted from PAMPA Pe
[9] = tested on: LPS5 lymphoblasts; test: Antioxidant activity after menadione in ALS patient lymphoblasts; type: cell-based, human; details: for rescue of cell viability after menadione: LPS5, 10 μM menadione 3 h, 10 µM compound pretreatment 21 h
[10] = tested on: primary cerebellar granule neurons (CGNs); test: Neuroprotection on glutamate-mediated excitotoxicity in CGNs (MTT); details: 100 μM glutamate; for reversal of glutamate-mediated excitotoxicity: CGNs
[11] = tested on: LPS5 lymphoblasts; test: Cell viability in mutSOD1 lymphoblasts (resazurin reduction); type: cell-based, human; details: LPS5 (mutSOD1), 1, 10, 100 µM, 24 h
[12] = Antioxidant activity after menadione in healthy lymphoblasts; type: cell-based, human; details: human, LH5 lymphoblast-derived cell line, read-out: cell viability after menadione insult
[13] = Antioxidant activity after menadione in ALS patient lymphoblasts; type: cell-based, human; details: human, LPS5 lymphoblast-derived cell line; LPS5, 50 μM menadione; read-out: cell viability after menadione insult
[14] = Table S3, mean ± SD, highest concentration 10 µM, read-out: IC50 hMAO-A
[15] = Table S3, mean ± SD, highest concentration 10 µM, read-out: IC50 hMAO-B
[16] = pH 7.4, Pe, in vitro permeability coefficient, PBS pH 7.4, Pe ± SEM
[17] = pH 7.4, permeability coefficient (Pe)

| Structure (SMILES) | IC50 [2, 14] | IC50 [3, 15] | inhibition at 10 µM [2] | inhibition at 10 µM [3] | remaining activity at 40 µM [7] | Papp [8, 16] | CNS prediction [8] | also measured |
| --- | --- | --- | --- | --- | --- | --- | --- | --- |
| CC[C@H](CO)Nc1nc(NCc2ccc(-c3ccccn3)cc2)c2ncn(C(C)C)c2n1 [CR8] | – | – | – | – | – | – | – | IC50 ([1]; read-out: IC50 (positive control)): 0.4 µM |
| Nc1nc2ccc(OC(F)(F)F)cc2s1 [Compound 1, riluzole, reference compound] | 8.71 ± 0.81 µM | > 10 µM | – | – | – | – | – | IC50 ([2]; read-out: hMAO-A IC50): 8.7 µM; rescue of cell viability after menadione [4]: a viability recovery trend; iNOS expression [5]: moderate decrease of iNOS expression; Bcl-2 expression ([6]; LPS-insulted N9, 1 or 10 μM): increased the level of the anti-apoptotic Bcl-2 marker; IC50 ([1]; read-out: IC50 against CK1δ): 16.1 µM |
| C#CCN[C@@H]1CCc2ccccc21 [Compound 2, rasagiline, reference compound] | – | – | – | – | – | – | – | iNOS expression [5]: moderate decrease of iNOS expression; Bcl-2 expression ([6]; LPS-insulted N9, 1 or 10 μM): increased the level of the anti-apoptotic Bcl-2 marker |
| C#CCN(CC#C)Cc1ccc2nc(N)sc2c1 [Compound 3] | > 10 µM | > 10 µM | < 50% | < 50% | 64.4% | 24.9 ± 0.25 ×10⁻⁶ cm/s | CNS + (CNS +: high BBB permeation predicted, Pe (×10-6 cm s-1) > 4.0) | melting point: 148 °C |
| C#CCNCc1ccc2nc(N)sc2c1 [Compound 4] | > 10 µM | > 10 µM | < 50% | < 50% | 69% | 9.3 ± 0.1 ×10⁻⁶ cm/s | CNS + (CNS +: high BBB permeation predicted, Pe (×10-6 cm s-1) > 4.0) | – |
| C#CCN(C)Cc1ccc2nc(N)sc2c1 [Compound 5] | 2.73 ± 0.39 µM | 9.31 ± 1.57 µM | – | – | 83.7% | 22.7 ± 0.6 ×10⁻⁶ cm/s | CNS + (CNS +: high BBB permeation predicted, Pe (×10-6 cm s-1) > 4.0) | IC50 ([2]; read-out: hMAO-A IC50): 2.7 ± 0.4 µM; SI: hMAO-B selectivity index = IC50 (hMAO-A)/IC50 (hMAO-B) [3]: 0.29; IC50 ([3]; read-out: hMAO-B IC50): 9.3 ± 1.6 µM; rescue of cell viability after menadione [4]: a better restorative activity trend than the combination; rescue of cell viability after menadione [9]: no significant effects; Bcl-2 expression ([6]; LPS-insulted N9, 10 μM): a trend of recovery in Bcl-2 expression; reversal of glutamate-mediated excitotoxicity ([10]; compound 1, 10, 25 μM): no significant changes |
| C#CCNc1nc2ccc(N(CC#C)C(C)=O)cc2s1 [Compound 6] | 6.88 ± 0.46 µM | > 10 µM | – | – | 85.2% | 10.2 ± 0.25 ×10⁻⁶ cm/s | CNS + (CNS +: high BBB permeation predicted, Pe (×10-6 cm s-1) > 4.0) | IC50 ([2]; read-out: hMAO-A IC50): 6.9 µM; SI: hMAO-B selectivity index = IC50 (hMAO-A)/IC50 (hMAO-B) [3]: < 0.69; cytotoxic effects, cell viability [11]: no toxicity; rescue of cell viability after menadione [4]: a better restorative activity trend than the combination; rescue of cell viability after menadione [9]: no significant effects; reduction of iNOS level [5]: about 60%; Bcl-2 expression ([6]; LPS-insulted N9, 10 μM): not evident; Bcl-2 expression ([6]; LPS-insulted N9, 1 or 10 μM): no increase in the level of the Bcl-2 anti-apoptotic marker; Papp [8, 17]: 10.1 ± 0.2 ×10⁻⁶ cm/s; reversal of glutamate-mediated excitotoxicity ([10]; compound at 1 and 10 μM): restored viability |
| C#CCNC1CCc2nc(N)sc2C1 (stereo not shown) [Compound 7] | > 10 µM | > 10 µM | < 50% | < 50% | – | 7.7 ± 1 ×10⁻⁶ cm/s | CNS + (CNS +: high BBB permeation predicted, Pe (×10-6 cm s-1) > 4.0) | Papp [8, 17]: 7.7 ± 1 ×10⁻⁶ cm/s |
| C#CCNc1nc2c(s1)CC(N(CC#C)C(C)=O)CC2 (stereo not shown) [Compound 8] | > 10 µM | > 10 µM | < 50% | < 50% | – | 4.6 ± 0.6 ×10⁻⁶ cm/s | CNS + (CNS +: high BBB permeation predicted, Pe (×10-6 cm s-1) > 4.0) | Papp [8, 17]: 4.6 ± 0.6 ×10⁻⁶ cm/s |
| CO/N=C(\C(=O)N[C@@H]1C(=O)N2C(C(=O)O)=C(COC(N)=O)CS[C@H]12)c1ccco1 [cefuroxime, reference compound] | – | – | – | – | – | 0.62 ± 0.16 ×10⁻⁶ cm/s | CNS - (CNS -: low BBB permeation predicted, Pe (×10-6 cm s-1) < 2.0) | – |
| N[C@@H](CCC(=O)O)C(=O)O [glutamate, reference compound] | – | – | – | – | – | – | – | viability of CGNs exposed to glutamate ([10]; compared with the control): 80% |
| CC1=CC(=O)c2ccccc2C1=O [menadione, 2-methyl-1,4-naphthoquinone, reference compound] | – | – | – | – | – | – | – | viability at 3 h, 10 µM ([12]; LH5, 10 μM menadione): 80%; viability at 3 h, 50 µM ([12]; LH5, 50 μM menadione): ~40%; viability at 3 h, 50 µM [13]: ~80%; cytotoxic effect of menadione ([9]; LPS5, 10 μM menadione): unable to cause a cytotoxic effect |
